The values that follow come from PMC9791655 (Journal of Medicinal Chemistry, 2022).

Series [1] can be described thus: Radiotelemetric measurement of blood pressure in rats. The following applies: telemetric rats, within 24 h.
The nature of series [2]: Pharmacokinetics in dogs. Type of series: in vivo. The following applies: dog, blood, iv, 0.3 mg/kg.
A short description of series [3]: Transverse aortic constriction. The following applies: mouse TAC. Format: in vivo.
Series [4] concerns the target T1, mouse PDE9A (Mus musculus, UniProt O70628).
T1 sequence (O70628 1-534): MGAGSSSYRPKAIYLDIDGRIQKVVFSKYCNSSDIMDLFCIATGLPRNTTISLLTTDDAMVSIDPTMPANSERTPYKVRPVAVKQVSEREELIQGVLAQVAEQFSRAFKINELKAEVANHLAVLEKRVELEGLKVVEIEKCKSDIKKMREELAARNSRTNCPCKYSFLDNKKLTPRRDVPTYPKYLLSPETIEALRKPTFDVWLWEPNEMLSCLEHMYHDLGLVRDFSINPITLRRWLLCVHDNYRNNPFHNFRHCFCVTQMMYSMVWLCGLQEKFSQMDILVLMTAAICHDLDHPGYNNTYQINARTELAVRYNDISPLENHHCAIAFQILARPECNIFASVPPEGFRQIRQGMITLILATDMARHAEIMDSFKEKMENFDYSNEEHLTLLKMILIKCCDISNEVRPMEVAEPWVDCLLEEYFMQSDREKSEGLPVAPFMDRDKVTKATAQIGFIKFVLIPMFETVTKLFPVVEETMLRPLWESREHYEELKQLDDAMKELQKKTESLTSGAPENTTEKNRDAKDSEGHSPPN
In words: PDE9A scintillation proximity assay, mouse enzyme. Format: biochemical.

The target of series [5] is T2, rat PDE9A (Rattus norvegicus, UniProt Q8QZV1).
T2 sequence (Q8QZV1 1-534): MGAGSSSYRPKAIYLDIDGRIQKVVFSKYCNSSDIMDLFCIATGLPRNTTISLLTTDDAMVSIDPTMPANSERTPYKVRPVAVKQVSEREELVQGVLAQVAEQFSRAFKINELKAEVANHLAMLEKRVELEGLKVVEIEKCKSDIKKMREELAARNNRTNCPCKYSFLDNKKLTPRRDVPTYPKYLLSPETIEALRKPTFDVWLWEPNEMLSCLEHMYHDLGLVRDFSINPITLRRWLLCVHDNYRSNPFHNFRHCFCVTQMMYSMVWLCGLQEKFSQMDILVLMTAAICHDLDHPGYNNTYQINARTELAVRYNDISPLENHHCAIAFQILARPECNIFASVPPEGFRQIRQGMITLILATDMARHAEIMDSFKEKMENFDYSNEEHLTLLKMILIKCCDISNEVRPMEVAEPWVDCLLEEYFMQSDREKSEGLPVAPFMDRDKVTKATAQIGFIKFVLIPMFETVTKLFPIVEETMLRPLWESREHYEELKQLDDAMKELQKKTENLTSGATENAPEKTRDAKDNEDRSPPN
In words: PDE9A scintillation proximity assay, rat enzyme. Type of series: biochemical.

Series [6] can be described thus: Metabolite identification assay, hepatocyte incubation. Type of series: in vitro ADME, rat.
Series [7] relates to PDE3B. In words: PDE selectivity profiling. Format: biochemical, human.
The subject of series [8] is CYP3A4 mRNA. The experiment in a line: CYP induction potential in human hepatocytes. Format: in vitro ADME.
Series [9] deals with Nav1.5 (Homo sapiens, UniProt Q14524). The experiment in a line: Cardiac ion channel inhibition.
The test system of series [10] is CYP1A2. Format: in vitro ADME. The following applies: human hepatocytes.
In series [11] the target is CYP2D6 (Homo sapiens, UniProt P10635). In words: CYP inhibition assay. The following applies: at 20 μM.
Series [12] has as its system PDE2A. The experiment in a line: PDE selectivity profiling. Type of series: biochemical, human.
Series [13] relates to urinary cGMP. The experiment in a line: Urinary cGMP assay in rats. The following applies: 40 mg/kg. Format: in vivo, rat.
Series [14] deals with CYP3A4 (Homo sapiens, UniProt P08684). The experiment in a line: CYP inhibition assay. The following applies: at 20 μM.
Series [15] has as its system 75 off-targets (Panlabs). The experiment in a line: Panlabs off-target profile.
In series [16] the target is hERG (Homo sapiens, UniProt Q12809). The experiment in a line: Cardiac ion channel inhibition.
Series [17] deals with human PDE9A (Homo sapiens, UniProt O76083). In words: PDE9A scintillation proximity assay with 3H-cGMP. Type of series: biochemical.
For series [18], the system named is PDE10A. In words: PDE selectivity profiling. Format: biochemical, human.
Series [19] deals with PDE7B. The experiment in a line: PDE selectivity profiling. Type of series: biochemical, human.
Series [20] in a line: Metabolite identification assay, hepatocyte incubation. Format: in vitro ADME, human.
The target in series [21] is T3, CYP1A2 (Homo sapiens, UniProt P05177).
T3 sequence (P05177 1-516): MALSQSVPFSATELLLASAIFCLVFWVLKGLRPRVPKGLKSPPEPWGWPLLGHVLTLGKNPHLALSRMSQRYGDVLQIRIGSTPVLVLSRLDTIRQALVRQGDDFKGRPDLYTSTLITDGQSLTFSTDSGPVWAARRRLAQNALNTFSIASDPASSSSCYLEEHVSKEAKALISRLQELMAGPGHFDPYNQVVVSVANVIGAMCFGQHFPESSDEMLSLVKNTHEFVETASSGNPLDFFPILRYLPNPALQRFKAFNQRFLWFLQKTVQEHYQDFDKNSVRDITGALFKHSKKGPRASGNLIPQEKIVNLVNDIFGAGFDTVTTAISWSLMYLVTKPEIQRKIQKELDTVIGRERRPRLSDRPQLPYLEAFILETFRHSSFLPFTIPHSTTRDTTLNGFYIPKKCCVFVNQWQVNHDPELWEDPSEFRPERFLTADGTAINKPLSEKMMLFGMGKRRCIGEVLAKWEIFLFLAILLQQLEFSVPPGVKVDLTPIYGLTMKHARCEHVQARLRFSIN
The following applies: at 20 μM.

A short description of series [22]: Ames test.
Series [23] concerns the target T4, CYP2C8 (Homo sapiens, UniProt P10632).
T4 sequence (P10632 1-490): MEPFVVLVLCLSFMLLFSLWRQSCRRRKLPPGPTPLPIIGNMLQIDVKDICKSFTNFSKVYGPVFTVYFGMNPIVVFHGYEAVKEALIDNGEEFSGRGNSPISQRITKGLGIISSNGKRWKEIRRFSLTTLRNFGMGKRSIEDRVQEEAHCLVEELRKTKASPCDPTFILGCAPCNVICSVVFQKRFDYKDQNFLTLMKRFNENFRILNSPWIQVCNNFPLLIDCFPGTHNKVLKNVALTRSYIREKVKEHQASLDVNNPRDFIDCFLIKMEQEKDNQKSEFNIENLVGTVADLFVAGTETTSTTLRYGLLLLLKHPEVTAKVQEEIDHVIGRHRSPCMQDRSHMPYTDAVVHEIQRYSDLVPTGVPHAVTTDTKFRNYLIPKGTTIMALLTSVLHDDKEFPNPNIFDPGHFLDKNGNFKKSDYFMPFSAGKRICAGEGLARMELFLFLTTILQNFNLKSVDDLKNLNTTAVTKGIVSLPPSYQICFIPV
In words: CYP inhibition assay. The following applies: at 20 μM.

The mark [24] stands for this setting: twice daily oral 10 or 50 mg/kg.
The mark [25] stands for this setting: 10 mg/kg twice daily for 5 weeks.

CYP2D6, sequence (P10635 whole entry): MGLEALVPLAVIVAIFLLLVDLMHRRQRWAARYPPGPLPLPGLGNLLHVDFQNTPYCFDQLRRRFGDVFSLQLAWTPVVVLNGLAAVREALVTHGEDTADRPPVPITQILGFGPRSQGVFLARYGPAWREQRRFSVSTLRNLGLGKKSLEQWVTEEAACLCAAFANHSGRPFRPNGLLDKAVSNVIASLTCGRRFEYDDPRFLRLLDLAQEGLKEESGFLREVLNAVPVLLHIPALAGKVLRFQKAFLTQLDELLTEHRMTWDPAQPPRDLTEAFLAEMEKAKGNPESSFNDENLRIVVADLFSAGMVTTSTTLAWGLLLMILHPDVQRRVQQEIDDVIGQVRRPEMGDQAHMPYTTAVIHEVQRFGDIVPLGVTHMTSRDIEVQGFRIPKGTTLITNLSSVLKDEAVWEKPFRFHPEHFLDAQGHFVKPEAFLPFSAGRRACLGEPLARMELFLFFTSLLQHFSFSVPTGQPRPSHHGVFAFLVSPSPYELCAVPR
CYP3A4, sequence (P08684 whole entry): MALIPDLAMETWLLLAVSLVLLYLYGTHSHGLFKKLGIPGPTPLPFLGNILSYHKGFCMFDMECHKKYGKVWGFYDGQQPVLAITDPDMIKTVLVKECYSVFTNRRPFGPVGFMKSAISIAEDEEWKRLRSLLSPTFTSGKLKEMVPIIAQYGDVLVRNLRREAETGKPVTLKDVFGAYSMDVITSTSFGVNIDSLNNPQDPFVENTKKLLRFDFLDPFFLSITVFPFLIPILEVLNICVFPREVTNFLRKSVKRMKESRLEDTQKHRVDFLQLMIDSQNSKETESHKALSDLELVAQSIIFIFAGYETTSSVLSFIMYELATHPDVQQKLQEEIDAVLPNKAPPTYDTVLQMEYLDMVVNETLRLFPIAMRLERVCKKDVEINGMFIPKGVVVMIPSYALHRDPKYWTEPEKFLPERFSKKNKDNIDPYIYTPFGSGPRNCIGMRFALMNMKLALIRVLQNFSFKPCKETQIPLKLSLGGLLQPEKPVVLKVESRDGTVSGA
human PDE9A, sequence (O76083 whole entry): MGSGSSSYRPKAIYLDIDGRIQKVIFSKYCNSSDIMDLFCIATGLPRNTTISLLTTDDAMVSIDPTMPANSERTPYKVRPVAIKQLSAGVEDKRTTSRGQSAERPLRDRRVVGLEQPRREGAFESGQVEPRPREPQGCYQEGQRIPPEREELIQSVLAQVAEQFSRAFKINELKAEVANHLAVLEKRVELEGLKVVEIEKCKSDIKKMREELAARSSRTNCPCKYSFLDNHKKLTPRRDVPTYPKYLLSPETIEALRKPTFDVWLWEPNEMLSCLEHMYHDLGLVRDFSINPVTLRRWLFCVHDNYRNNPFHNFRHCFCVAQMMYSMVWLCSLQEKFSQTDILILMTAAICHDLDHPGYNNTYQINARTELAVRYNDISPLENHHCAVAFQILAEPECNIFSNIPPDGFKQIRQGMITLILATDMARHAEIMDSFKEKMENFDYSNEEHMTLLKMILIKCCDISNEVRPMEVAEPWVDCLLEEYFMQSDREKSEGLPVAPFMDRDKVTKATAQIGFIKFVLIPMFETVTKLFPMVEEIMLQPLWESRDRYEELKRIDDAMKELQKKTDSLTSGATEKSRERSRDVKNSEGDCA
hERG, sequence (Q12809 whole entry): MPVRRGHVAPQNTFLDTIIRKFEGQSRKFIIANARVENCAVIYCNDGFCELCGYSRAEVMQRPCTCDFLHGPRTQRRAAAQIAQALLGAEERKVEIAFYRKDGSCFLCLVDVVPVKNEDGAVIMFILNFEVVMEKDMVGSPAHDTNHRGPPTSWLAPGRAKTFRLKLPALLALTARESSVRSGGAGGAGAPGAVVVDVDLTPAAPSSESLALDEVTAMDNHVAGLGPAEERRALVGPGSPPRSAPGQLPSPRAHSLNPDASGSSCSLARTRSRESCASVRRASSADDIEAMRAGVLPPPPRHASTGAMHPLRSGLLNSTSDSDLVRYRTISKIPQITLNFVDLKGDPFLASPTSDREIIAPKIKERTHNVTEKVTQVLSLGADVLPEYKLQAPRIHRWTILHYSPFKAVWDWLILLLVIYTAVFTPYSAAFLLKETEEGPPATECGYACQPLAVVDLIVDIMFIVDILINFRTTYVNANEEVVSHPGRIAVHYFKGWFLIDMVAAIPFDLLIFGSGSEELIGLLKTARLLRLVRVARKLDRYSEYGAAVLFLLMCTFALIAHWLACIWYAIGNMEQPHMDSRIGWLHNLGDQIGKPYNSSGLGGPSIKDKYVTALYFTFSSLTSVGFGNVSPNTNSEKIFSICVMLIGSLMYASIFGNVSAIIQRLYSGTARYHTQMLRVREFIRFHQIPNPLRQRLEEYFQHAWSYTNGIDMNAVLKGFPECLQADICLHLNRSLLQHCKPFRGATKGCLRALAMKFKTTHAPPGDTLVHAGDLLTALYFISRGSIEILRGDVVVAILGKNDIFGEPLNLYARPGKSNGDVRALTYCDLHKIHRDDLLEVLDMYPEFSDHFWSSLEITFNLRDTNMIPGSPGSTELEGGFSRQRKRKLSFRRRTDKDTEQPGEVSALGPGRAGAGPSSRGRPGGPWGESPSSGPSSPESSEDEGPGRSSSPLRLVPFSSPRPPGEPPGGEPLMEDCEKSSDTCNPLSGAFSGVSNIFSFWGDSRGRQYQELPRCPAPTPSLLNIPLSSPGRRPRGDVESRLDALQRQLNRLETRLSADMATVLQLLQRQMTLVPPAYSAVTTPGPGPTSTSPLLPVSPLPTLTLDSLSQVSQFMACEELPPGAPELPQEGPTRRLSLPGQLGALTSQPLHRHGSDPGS
Nav1.5, sequence (Q14524 whole entry): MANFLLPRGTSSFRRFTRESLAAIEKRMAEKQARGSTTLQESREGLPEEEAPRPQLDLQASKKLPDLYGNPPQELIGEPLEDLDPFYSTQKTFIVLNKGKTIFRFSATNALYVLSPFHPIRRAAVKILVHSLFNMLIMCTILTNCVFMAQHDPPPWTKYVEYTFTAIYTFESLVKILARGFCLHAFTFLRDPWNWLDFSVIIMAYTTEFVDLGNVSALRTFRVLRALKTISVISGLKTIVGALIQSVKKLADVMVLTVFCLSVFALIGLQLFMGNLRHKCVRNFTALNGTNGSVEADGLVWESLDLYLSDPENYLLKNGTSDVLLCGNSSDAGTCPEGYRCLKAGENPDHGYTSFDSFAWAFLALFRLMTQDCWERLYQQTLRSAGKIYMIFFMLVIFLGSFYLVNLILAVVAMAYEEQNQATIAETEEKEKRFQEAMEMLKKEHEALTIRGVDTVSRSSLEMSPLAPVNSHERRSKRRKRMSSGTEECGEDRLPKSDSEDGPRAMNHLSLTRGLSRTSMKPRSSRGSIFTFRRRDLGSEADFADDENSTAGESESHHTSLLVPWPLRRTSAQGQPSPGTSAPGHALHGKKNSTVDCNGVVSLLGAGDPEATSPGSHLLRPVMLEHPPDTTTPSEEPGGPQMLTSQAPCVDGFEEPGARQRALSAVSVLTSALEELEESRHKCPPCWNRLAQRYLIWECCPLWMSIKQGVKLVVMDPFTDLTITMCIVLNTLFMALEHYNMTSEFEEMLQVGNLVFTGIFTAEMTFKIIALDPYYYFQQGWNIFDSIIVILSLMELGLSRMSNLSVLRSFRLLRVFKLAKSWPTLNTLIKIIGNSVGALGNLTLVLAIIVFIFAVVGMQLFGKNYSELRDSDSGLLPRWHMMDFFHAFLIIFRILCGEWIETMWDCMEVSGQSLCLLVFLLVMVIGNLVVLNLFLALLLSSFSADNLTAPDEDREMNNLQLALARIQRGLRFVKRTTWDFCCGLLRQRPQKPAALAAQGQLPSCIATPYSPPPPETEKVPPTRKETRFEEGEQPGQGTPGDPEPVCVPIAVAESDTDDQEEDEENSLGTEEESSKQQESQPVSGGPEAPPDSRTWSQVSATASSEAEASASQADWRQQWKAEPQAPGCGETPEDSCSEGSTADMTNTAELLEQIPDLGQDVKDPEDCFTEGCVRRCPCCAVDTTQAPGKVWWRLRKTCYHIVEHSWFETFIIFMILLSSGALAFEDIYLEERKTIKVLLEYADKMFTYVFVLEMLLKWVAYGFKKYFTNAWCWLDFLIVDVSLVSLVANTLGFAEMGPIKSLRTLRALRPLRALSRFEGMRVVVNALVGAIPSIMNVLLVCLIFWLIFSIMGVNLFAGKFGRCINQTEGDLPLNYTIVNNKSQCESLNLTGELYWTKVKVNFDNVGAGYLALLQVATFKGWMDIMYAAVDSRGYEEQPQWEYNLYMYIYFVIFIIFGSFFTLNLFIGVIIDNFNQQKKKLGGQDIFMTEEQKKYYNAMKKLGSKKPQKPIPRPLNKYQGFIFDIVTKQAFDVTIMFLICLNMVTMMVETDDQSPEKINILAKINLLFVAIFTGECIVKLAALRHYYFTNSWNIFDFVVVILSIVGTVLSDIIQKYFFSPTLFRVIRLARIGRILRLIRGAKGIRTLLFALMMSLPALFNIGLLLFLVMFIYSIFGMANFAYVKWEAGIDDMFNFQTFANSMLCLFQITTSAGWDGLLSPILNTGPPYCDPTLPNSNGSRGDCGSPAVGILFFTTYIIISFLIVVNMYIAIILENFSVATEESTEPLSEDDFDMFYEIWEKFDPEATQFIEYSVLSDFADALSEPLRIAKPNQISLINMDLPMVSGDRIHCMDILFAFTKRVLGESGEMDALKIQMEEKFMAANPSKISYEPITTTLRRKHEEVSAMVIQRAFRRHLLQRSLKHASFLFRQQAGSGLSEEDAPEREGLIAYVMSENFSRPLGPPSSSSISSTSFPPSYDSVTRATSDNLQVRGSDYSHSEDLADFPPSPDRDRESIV

Consider `C[C@@H]1CN(Cc2ncccn2)C[C@H]1c1nc2c(cnn2C2CCOCC2)c(=O)[nH]1` [PF-04447943, 6-[(3S,4S)-4-Methyl-1-(pyrimidin-2-ylmethyl)pyrrolidin-3-yl]-1-(tetrahydro-2H-pyran-4-yl)-1,5-dihydro-4H-pyrazolo[3,4-d]pyrimidin-4-one, reference compound], for which, in series [1] (setting [24]), the “effects on blood pressure” value is on record as “no significant effects” and the “effects on heart rate” value is “no significant effects”. Also, the clearance in series [2] was 8.33 mL/min/kg. For the same molecule, in series [3] (10 mg/kg bid for five weeks, 10 mg/kg), the “minimal diastolic left ventricular pressure (LVPmin)” value is “reduction”. For the same molecule, in series [3] (setting [25]), the “heart function (LVEDP, Tau)” value is on record as “trend for improvement” and the “hypertrophy of the left atrium” value was “statistically significant reduction”.
In [4], `CCCC1CNCc2c1[nH]c(=O)c(C#N)c2N1CCC2(CC1)CC2.Cl` (single isomer, unassigned; ent-4) [Compound 30, ent-4-(6-Azaspiro[2.5]octan-6-yl)-2-oxo-8-propyl-1,2,5,6,7,8-hexahydro-1,6-naphthyridine-3-carbonitrile Hydrochloride] gave an IC50 of 34 nM. Also, in series [5], the IC50 was found to be 42 nM. In addition, the “reactive metabolites after incubation with rat hepatocytes” value in series [6] is reported as “no reactive metabolites were formed”. Also, the “PDE3B selectivity factor (PDE#-IC50/PDE9A-IC50)” value in [7] was more than 650x. In addition, the “concentrations at which CYP3A4 mRNA was induced” value in series [8] is given as “above 9.2 μM”. Besides, in series [1] (once daily oral 5 or 40 mg/kg), the “effects on blood pressure” value is given as “no significant effects” and the “effects on heart rate” value is listed as “no significant effects”. The “inhibition of cardiac ion channel Nav1.5” value in [9] was “clean profile”. In series [10], the CYP1A2 induction result was “no induction”. Besides, the “inhibition of CYP2D6” value in series [11] is given as “No inhibition”. In series [12], the “PDE2A selectivity factor (PDE#-IC50/PDE9A-IC50)” value was more than 650x. The “urinary cGMP versus vehicle” value in series [13] is recorded as “nonsignificant trend toward higher cGMP levels”. Besides, the “inhibition of CYP3A4” value in series [14] is “No inhibition”. In addition, the “inhibition of 75 off-targets (Panlabs)” value in [15] was “clean profile”. The “inhibition of cardiac ion channel hERG” value in series [16] is recorded as “clean profile”. In addition, the “BEI binding efficiency index −log (IC50)/MW × 1000” value in series [17] was 23.9. Also, the “PDE10A selectivity factor (PDE#-IC50/PDE9A-IC50)” value in series [18] is more than 650x. Moreover, the clearance in series [2] was 15 mL/min/kg. For the same molecule, the “PDE7B selectivity factor (PDE#-IC50/PDE9A-IC50)” value in [19] was more than 650x. Further, the “reactive metabolites after incubation with human hepatocytes” value in series [20] is “no reactive metabolites were formed”. Also, the “degradation in the presence of human hepatocytes” value in [20] (after 4 h of incubation) is given as “almost no degradation”. In [21], the “inhibition of CYP1A2” value is reported as “No inhibition”. The “genotoxicity in Ames test” value in series [22] is reported as “No genotoxicity”. Further, in series [23], the “inhibition of CYP2C8” value is on record as “No inhibition”.
